Numbers after ± are expanded uncertainties.
Assay: activity coefficient (dimensionless); of the first substance listed, at infinite dilution; xn = mol fraction of the nth substance listed
Details: Liquid, Chromatography, x1 = 0

Compound | activity coefficient (298.15 K) | activity coefficient (308.15 K) | activity coefficient (318.15 K) | activity coefficient (328.15 K) | activity coefficient (338.15 K) | activity coefficient (348.15 K) | activity coefficient (358.15 K) | activity coefficient (368.15 K)
CO [methanol] + CCCC[N+]1(C)CCCC1.O=S(=O)([O-])C(F)(F)F | 0.717 ± 0.03 | 0.684 ± 0.029 | 0.655 ± 0.029 | 0.628 ± 0.029 | 0.604 ± 0.028 | 0.581 ± 0.028 | 0.563 ± 0.028 | 0.543 ± 0.028
CCCCCCCCC [nonane] + CCCC[N+]1(C)CCCC1.O=S(=O)([O-])C(F)(F)F | 135 ± 6 | 122 ± 5 | 111 ± 5 | 100 ± 5 | 92.4 ± 4.1 | 85.2 ± 3.8 | 78.9 ± 3.5 | 73.3 ± 3.3
C=CCCCCCC [oct-1-ene] + CCCC[N+]1(C)CCCC1.O=S(=O)([O-])C(F)(F)F | 40.9 ± 1.8 | 38.4 ± 1.7 | 36.2 ± 1.6 | 34.3 ± 1.5 | 32.7 ± 1.5 | 31.2 ± 1.4 | 29.8 ± 1.3 | 28.6 ± 1.3
CCCCCCCC [octane] + CCCC[N+]1(C)CCCC1.O=S(=O)([O-])C(F)(F)F | 95.2 ± 4.3 | 86.9 ± 3.9 | 79.4 ± 3.5 | 73.1 ± 3.3 | 67.2 ± 3 | 62.9 ± 2.8 | 58.4 ± 2.6 | 54.4 ± 2.4
CCCCC [pentane] + CCCC[N+]1(C)CCCC1.O=S(=O)([O-])C(F)(F)F | 52.1 ± 2.3 | 46.1 ± 2.1 | 40.3 ± 1.8 | 35.9 ± 1.6 | 32.2 ± 1.4 | 28.9 ± 1.3 | 26.1 ± 1.2 | –
CCCO [propan-1-ol] + CCCC[N+]1(C)CCCC1.O=S(=O)([O-])C(F)(F)F | – | 1.26 ± 0.05 | 1.2 ± 0.05 | 1.14 ± 0.04 | 1.08 ± 0.04 | 1.04 ± 0.04 | 0.995 ± 0.035 | 0.953 ± 0.034
C1CCOC1 [tetrahydrofuran] + CCCC[N+]1(C)CCCC1.O=S(=O)([O-])C(F)(F)F | 1.38 ± 0.05 | 1.39 ± 0.06 | 1.41 ± 0.06 | 1.42 ± 0.06 | 1.43 ± 0.06 | 1.44 ± 0.06 | 1.45 ± 0.06 | 1.46 ± 0.06
c1ccsc1 [thiophene] + CCCC[N+]1(C)CCCC1.O=S(=O)([O-])C(F)(F)F | 1.02 ± 0.04 | 1.04 ± 0.04 | 1.06 ± 0.04 | 1.08 ± 0.04 | 1.1 ± 0.04 | 1.11 ± 0.04 | 1.13 ± 0.04 | 1.14 ± 0.04
Cc1ccccc1 [toluene] + CCCC[N+]1(C)CCCC1.O=S(=O)([O-])C(F)(F)F | 2.16 ± 0.09 | 2.19 ± 0.1 | 2.22 ± 0.1 | 2.25 ± 0.1 | 2.27 ± 0.1 | 2.3 ± 0.1 | 2.32 ± 0.1 | 2.35 ± 0.1
O [water] + CCCC[N+]1(C)CCCC1.O=S(=O)([O-])C(F)(F)F | – | – | 0.865 ± 0.032 | 0.83 ± 0.032 | 0.794 ± 0.031 | 0.765 ± 0.031 | 0.739 ± 0.03 | 0.712 ± 0.03
